Source: patent US10111877B2, “Modulators of androgen synthesis” (Tangent Reprofiling Limited, priority 2012, dated 2018)
Where two headings read alike, the source gives them in different places.

How the values were obtained:
HSD10 = target: T1, HSD10 (Homo sapiens, UniProt Q99714); test: HSD10 Enzyme Inhibition Assay; assay type: biochemical; settings: 50 μM drug
T1 construct: endogenous in cells; host or cells: PC3 cells
T1 sequence (Q99714 1-261): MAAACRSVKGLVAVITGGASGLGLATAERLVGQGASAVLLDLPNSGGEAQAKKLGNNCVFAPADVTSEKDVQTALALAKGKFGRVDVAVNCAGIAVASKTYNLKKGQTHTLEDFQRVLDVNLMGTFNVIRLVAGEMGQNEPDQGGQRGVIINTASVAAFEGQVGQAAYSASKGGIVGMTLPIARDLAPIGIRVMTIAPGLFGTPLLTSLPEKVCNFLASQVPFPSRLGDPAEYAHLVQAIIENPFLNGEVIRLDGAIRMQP
Experimental: An HSD10 inhibition assay was performed to determine the effect of several anti-psychotics on enzyme activity.
(§1) PC3 cells are from a cell line derived from a hormone refractory prostate cancer and are known to overexpress HSD10. […] Cells line tests were carried out in presence and absence of testosterone for comparison. After incubation in the drug treatment for 96 hours at 37° C., 5% CO2, the supernatant was removed from all wells of cells, and cells washed with 200 μL PBS.
(§2) After removal of the PBS, cell number was determined using a lysed cell LDH assay (CytoTox 96 Non-radioactive cytotoxicity assay (LDH Assay); Promega, Co., Madison Wis.). Cells were lysed with 0.9% Triton-X in PBS for 2 hours at 37° C., 5% CO2 and 50 μL of this cell lysate was transferred to a fresh 96 well plate. About 50 μL of CytoTox 96 assay reagent was added to the transferred cell lysate and this mixture was incubated at room temperature in the dark for 20 minutes. After the addition of 50 μL stop reagent, the optical absorbance was determined for each incubated mixture at 492 nm. […] The mean and standard error was calculated from at least 3 wells.

PC3 cells = test: Cell growth inhibition, lysed cell LDH assay, prostate cancer cell line; assay type: cell-based
Experimental: To determine whether Risperidone could be effective in inhibiting growth of cancer cells overexpressing HSD10, a lysed cell LDH assay was conducted using cells from a PC3 cell line.
as §1, §2
To determine the optimal concentration of Risperidone and CLA necessary to inhibit cell growth, a lysed cell LDH assay was conducted using various concentration of Risperidone and CLA. PC3 cells were cultured and a lysed cell LDH assay was conducted as described above, except that the various drug treatments evaluated contained either 0 μM, 12.5 μM, 25 μM, or 50 μM Risperidone in combination with 0 μM, 6.25 μM, 12.5 μM, 25 μM, 50 μM, or 100 μM CLA (see Table 3).
as §2, with “PBS from the cell cultures described above,” for “PBS,”, “assay.” for “assay (CytoTox 96 Non-radioactive cytotoxicity assay (LDH Assay); Promega, Co., Madison Wis.).”

A549 cells = test: Cell growth inhibition, lysed cell LDH assay, lung cancer cell line; assay type: cell-based
Experimental: To determine whether Risperidone alone, or in combination with CLA could inhibit cell growth of cells taken from a lung cancer cell line overexpressing HSD10, A549 cells were seeded at a density of 2,000 cells per well in a 96 well plate, and incubated at 37° C., 5% CO2 for 48 hours in standard growth media (DMEM nutrient media, 10% Fetal Calf Serum, 2 mM L-Glutamine). The media was then removed by pipette and replaced with the appropriate drug treatment as follows: 50 μM Risperidone in A459 treatment media (DMEM nutrient media, 125 uM fatty acid free BSA, 2 mM L-Glutamine); 50 μM CLA in A459 treatment media; 50 μM Risperidone and 50 μM CLA in A459 treatment media; 50 μM Risperidone and 1 μM Testosterone in A459 treatment media; 50 μM Risperidone, 50 μM CLA, and 1 μM Testosterone in A459 treatment media. After incubation in the drug treatment for 96 hours at 37° C., 5% CO2, the supernatant was removed from all wells of cells, and cells washed with 200 μL PBS.
After removal of the PBS from the cell cultures described above, cell number was determined using a lysed cell LDH assay. Cells were lysed with 0.9% Triton-X in PBS for 2 hours at 37° C., 5% CO2 and 50 μL of this cell lysate was transferred to a fresh 96 well plate. About 50 μL of CytoTox 96 assay reagent was added to the transferred cell lysate and this mixture was incubated at room temperature in the dark for 20 minutes. After the addition of 50 μL stop reagent, the optical absorbance was determined for each incubated mixture at 492 nm. The percentage cell number was calculated by normalizing the experimental counts, where 100% is set to cells receiving no drug treatment, and 0% is set to readings from wells containing no cells. The mean and standard error was calculated from at least 3 wells.

MCF7 cells = test: Cell growth inhibition, lysed cell LDH assay, breast cancer cell line; assay type: cell-based
Experimental: (§3) To determine whether Risperidone could be effective in inhibiting growth of cancer cells overexpressing HSD10, a lysed cell LDH assay was conducted using cells taken from a prostate cancer cell line, a lung cancer cell line, a breast cancer cell line, an ovarian cancer cell line, each of which was known to overexpress HSD10, and a non-cancerous cell line.
(§4) After incubation in the drug treatment for 96 hours at 37° C., 5% CO2, the supernatant was removed from all wells of cells, and cells washed with 200 μL PBS.
as §2, with “PBS from the cell cultures described above,” for “PBS,”, “assay.” for “assay (CytoTox 96 Non-radioactive cytotoxicity assay (LDH Assay); Promega, Co., Madison Wis.).”

OVCAR-3 cells = test: Cell growth inhibition, lysed cell LDH assay, ovarian cancer cell line; assay type: cell-based
Experimental: as §3, §4
as §2, with “PBS from the cell cultures described above,” for “PBS,”, “assay.” for “assay (CytoTox 96 Non-radioactive cytotoxicity assay (LDH Assay); Promega, Co., Madison Wis.).”

VERO cells = test: Cell growth inhibition, lysed cell LDH assay, non-cancerous cell line; assay type: cell-based
Experimental: as §3, §4
as §2, with “PBS from the cell cultures described above,” for “PBS,”, “assay.” for “assay (CytoTox 96 Non-radioactive cytotoxicity assay (LDH Assay); Promega, Co., Madison Wis.).”

BxPC-3 cells = test: Resazurin-based cell viability assay, pancreatic cancer cell line; settings: Homo sapiens, BXPC-3, read-out: growth inhibition of Bx-PC3 cells
Experimental: To determine whether Risperidone alone, or in combination with CLA could inhibit cell growth of cells taken from a pancreatic cancer cell line overexpressing HSD10, a resazurin-based cell viability assay was conducted on Bx-PC3 cells.
BxPC-3 cells are from a cell line derived from a human pancreatic adenocarcinoma and are known to overexpress HSD10. BxPC-3 cells were seeded at a density of 4,000 cells per well in a 384 well plate, and incubated at 37° C., 5% CO2 for 24 hours in standard growth media (RPMI nutrient media, 5% heat-inactivated Fetal Calf Serum, 2 mM L-Glutamine). The media was then removed by pipette and replaced with 50 μL BxPC-3 treatment media comprising 125 μM fatty acid-free BSA, 2 mM L-Glutamine and one of the following drug treatments: 0.1 μM, 2 μM, or 50 μM Risperidone; 0.1 μM, 2 μM, or 50 μM CLA; or 0.1 μM, 2 μM, or 50 μM of Risperidone and CLA (in equimolar amounts). After incubation in the drug treatment for 72 hours at 37° C., 5% CO2, viable cell number was determined using a resazurin-based cell viability assay (PRESTOBLUE®; Invitrogen, Carlsbad, Calif.). To each well, 7 μL of PRESTOBLUE® reagent was added and the plates incubated for 60 minutes at 37° C., 5% CO2. After incubation, the fluorescence intensity of each well was determined using a microplate reader by excitation and 570 nm and recording emission at 600 nm. The percentage of viable cell number was calculated by normalizing the experimental fluorescence intensity, where 100% is set to cells receiving no drug treatment (cells metabolizing at optimal rate), and 0% is set to readings from cells treated with Paclitaxel (cells not metabolizing at all due to their destruction by anti-cancer drug). A value under 50% could be considered a useful indication of potential efficacy.

PC-3M-luc cells = test: Orthotopic prostate tumor mouse xenograft model; settings: single drug
Experimental: Immunodeficeint male mice (athymic nude mice) were acclimated to the laboratory for at least one week prior to implantation of tumor. PC-3M-luc cells obtained directly from in vitro culture were then injected into the prostate on Day 0. Animals were divided into six groups of 12 mice each. Primary tumor size and metastases were assessed by bioluminescence measurements on day 6, 13, 20, 27, 34, and 40. On day 7 a five week treatment regime was initiated. Both individual drug and high and low dose combination were examined by administering the drugs twice daily on an individual body weight basis using a dose escalation protocol (Table 7). If tumors grew above a pre-determined level, or mice lost more than 10% of bodyweight, they were culled. The primary tumor was excised, weighed and measured. Individual organs were imaged to assess metastatic burden.

[1] = 50 μM Risperidone and/or 50 μM CLA, 1 μM Testosterone (T) where added, 96 hours

Structure (SMILES): Cc1nc2n(c(=O)c1CCN1CCC(c3noc4cc(F)ccc34)CC1)CCCC2 [Risperidone, 3-[2-[4-(6-fluoro-1,2-benzoxazol-3-yl)piperidin-1-yl]ethyl]-2-methyl-6,7,8,9-tetrahydropyrido[1,2-a]pyrimidin-4-one]
- Oxidative Activity Rate (HSD10): 1.0 µM/min
- Reductive Activity Rate (HSD10): 3.3 µM/min
- inhibition at 50 µM (HSD10; read-out: Oxidative Activity Drug Inhibition): 88%
- inhibition at 50 µM (HSD10; read-out: Reductive Activity Drug Inhibition): 63%
- Percentage of Lysed Cells (PC3 cells; 12.5 μM Risperidone, 0 μM CLA (Table 4)): 81 ± 3.6%
- Percentage of Lysed Cells (PC3 cells; 12.5 μM of each drug, 96 hours, 100% = no drug treatment (Table 3)): 102 ± 5.4%
- Percentage of Lysed Cells (PC3 cells; 25 μM Risperidone, 0 μM CLA (Table 4)): 73 ± 2.2%
- Percentage of Lysed Cells (PC3 cells; 25 μM of each drug, 96 hours, 100% = no drug treatment (Table 3)): 93 ± 0.51%
- Percentage of Lysed Cells (PC3 cells; 50 μM Risperidone, 0 μM CLA (Table 4)): 79 ± 0.7%
- Percentage of Lysed Cells (PC3 cells; 50 μM of each drug, 96 hours, 100% = no drug treatment (Table 3)): 52 ± 0.22%
- inhibition at 50 µM (PC3 cells; Homo sapiens, PC-3, 50 μM): ~50%
- Percentage of Lysed Cells (PC3 cells; PC3, 50 μM Risperidone and/or 50 μM CLA, 1 μM Testosterone (T) where added, 96 hours (Table 5)): 52 ± 1.7%
- growth inhibition of PC3 cells (PC3 cells; either 25 μM or 50 μM Risperidone alone (Table 4 experiment)): 20-30%
- Percentage of Lysed Cells (A549 cells; A549, 50 μM Risperidone and/or 50 μM CLA, 1 μM Testosterone (T) where added, 96 hours): 38 ± 1.9%
- inhibition at 50 µM (A549 cells; Homo sapiens, A549, read-out: growth inhibition of A549 cells): > 60%
- Percentage of Lysed Cells (MCF7 cells; [1]): 35 ± 2.4%
- inhibition at 50 µM (MCF7 cells; Homo sapiens, 50 μM): ~65%
- Percentage of Lysed Cells (OVCAR-3 cells; [1]): 64 ± 0.4%
- inhibition at 50 µM (OVCAR-3 cells; Homo sapiens, 50 μM): ~35%
- effect on growth of cells from the non-cancerous cell line VERO (VERO cells; 50 μM): neither Risperidone nor CLA had any measurable effect
- Percentage of Lysed Cells (VERO cells; VERO, 50 μM Risperidone and/or 50 μM CLA, 1 μM Testosterone (T) where added, 96 hours): 94 ± 1.7%
- inhibition at 50 µM (BxPC-3 cells): ~60%
- body weight throughout the study (PC-3M-luc cells; by Day 40): maintained a constant weight
- animal loss (PC-3M-luc cells; by day 34): about 10%
- Tumor Growth Inhibition (PC-3M-luc cells; calculated on Day 34, dosing per Table 7): 16%
- Animal Survival (overall survivorship) (PC-3M-luc cells; day 40, dosing per Table 7): 33%
